Earlier results as cited in patent US7485705B2, “Water-soluble tetrazolium compounds” (Dojindo Laboratories, priority 2003, dated 2009).

SMILES | water solubility of the formazan formed upon receiving hydrogen
Cc1nc(-[n+]2nc(-c3ccccc3)nn2-c2ccccc2)sc1C.[Br-] [MTT, [3-(4,5-dimethylthiazol-2-yl)-2,5-diphenyltetrazolium bromide]] | insoluble in water
COc1cc(-c2ccc(-[n+]3nc(-c4ccccc4)nn3-c3ccc([N+](=O)[O-])cc3)c(OC)c2)ccc1-[n+]1nc(-c2ccccc2)nn1-c1ccc([N+](=O)[O-])cc1.[Cl-].[Cl-] [nitro-TB, 3,3′-[3,3′-dimethoxy-(1,1′-biphenyl)-4,4′-diyl]-bis-[2-(4-nitrophenyl)-5-2H tetrazolium chloride]] | insoluble in water
